Measurements: patent US20090325920A1, “METHODS FOR THE TREATMENT OF A TRAUMATIC CENTRAL NERVOUS SYSTEM INJURY” (priority 2005, published 2009)

Columns and labels:
[1] = test system: adults with blunt TBI, Glasgow Coma Scale score 4-12; test: Phase II randomized placebo-controlled trial in acute TBI: signals of activity, 30-day outcomes (Example 3); assay type: in vivo, human; settings: for All cause mortality (ITT): intention to treat, n=77
From the text: In addition to monitoring subjects for signs of harm, we hoped to detect signals of activity. […] For this preliminary study, our primary outcome of interest was Glasgow Outcome Scale Extended (GOSE) 30 days post-injury. […] Thirty days following each injury event, we assessed each patient's Glasgow Outcome Score Extended (GOSE) and Disability Rating Scale (DRS). Patients who were severely impaired were classified as “not testable”-a surrogate marker for a poor outcome. Reliability codes were used to record reasons for non-administration of a particular measure, such as physical impairment (e.g., hemiparesis) cognitive impairment (e.g., could not understand instructions), or intoxication. One-year outcomes will be reported at a later date. […] Our secondary aim was to look for signs of drug activity by assessing several measures of outcome. Our a priori primary measure of outcome was the Glasgow Outcome Scale-Extended ([…] et al. (1998) Journal of Neurotrauma 15(8):587-597). […] (1987) Journal of Neurosurgery 67(6):832-840) and 5) the Disability Rating Scale (DRS) (Hall et al. […] Variables determined to be independently associated with all-cause mortality or CNS related-death, such as iGCS (dichotomized into moderate versus severe), injury severity score and Marshall CT score were incorporated in a stepwise logistic regression analyses. Because GCS often fluctuates during the first few hours after injury, additional stepwise logistic regressions were performed using dichotomized GCS 1 day post-injury.

[2] = Stability of progesterone solutions (isocratic HPLC-UV); assay type: physicochemical
From the text: For all stability testing, the method of […], et al. was used with minor modifications ([…], et al. (1999) Journal of Pharmaceutical & Biomedical Analysis, 19(5):803-8). The method was originally validated to assess the stability of medroxyprogesterone acetate and estradiol valerate tablets. It is an isocratic HPLC-UV method utilizing external standardization. A 5 micron, 4.6×250mm BDS-Hypersil C-18 column (Keystone Scientific) was used and the analyses were completed on an Agilent 100 model HPLC system with photodiode array detector. The mobile phase consisted of 40% 0.07M ammonium acetate buffer, pH 7.2 and 60% acetonitrile. Detection was at […]. […] Reproducibility as assessed by 10 injections of the same preparation on multiple different days was always less that 10%. […] A five point standard curve was run with each analysis.

[3] = 30 days post injury, treatment received
[4] = Index GCS = 9-12, 30 days post injury

## CC(=O)[C@H]1CC[C@H]2[C@@H]3CCC4=CC(=O)CC[C@]4(C)[C@H]3CC[C@]12C [progesterone, pregn-4-ene-3,20-dione]
[1]; 30 days post injury
  Dichotomized Glasgow Outcome Score - Extended: Dead to Upper Severe: 70.0%
  Dichotomized Glasgow Outcome Score - Extended: good or moderate recovery: 30.0%
  Glasgow Outcome Score - Extended: Dead: 14.2%
  Glasgow Outcome Score - Extended: Lower Good: 4.3%
  Glasgow Outcome Score - Extended: Lower Moderate: 11.4%
  Glasgow Outcome Score - Extended: Lower Severe: 40.0%
  Glasgow Outcome Score - Extended: Upper Good: 4.3%
  Glasgow Outcome Score - Extended: Upper Moderate: 10.0%
  Glasgow Outcome Score - Extended: Upper Severe: 8.6%
  Glasgow Outcome Score - Extended: Vegetative State: 7.1%
  All cause mortality (ITT): 13%
[1]; 30 days post injury, listed as Progesterone
  All cause mortality (ITT): 13.0%
[1]; [3]
  All cause mortality (TR): 11.8%
  Neurological deaths: 5.3%
  Non-neurological deaths: 6.6%
[1]; 30 days post-injury
  dichotomized GOSE versus placebo: did not significantly differ between groups
[1]; Index GCS = 4-8, 30 days post injury
  Disability Rating Score: Total DRS, mean: 10.7
[1]; [4]
  Disability Rating Score: Employ, mean: 1.8
  Disability Rating Score: Function, mean: 1.5
  Disability Rating Score: Total DRS, mean: 5
[1]; Initial GCS = 4-8
  Duration of Coma, mean: 10.1 days
  Duration of Post-Traumatic Amnesia, mean: 18.6 days
[1]; Initial GCS = 4-8, listed as Progesterone
  Duration of Coma, mean: 10.11 days
[1]; Initial GCS = 9-12
  Duration of Coma, mean: 4.1 days
  Duration of Post-Traumatic Amnesia, mean: 10.7 days
[1]; first 4 days post-injury, subjects with monitors in place, not statistically significant
  trend of mean intracranial pressure levels: remained stable
[1]; infusion day 0
  Intracranial Pressure, mean: 16.0 mm Hg
[1]; infusion day 1
  Intracranial Pressure, mean: 17.1 mm Hg
[1]; infusion day 2
  Intracranial Pressure, mean: 15.4 mm Hg
[1]; infusion day 3
  Intracranial Pressure, mean: 16.0 mm Hg
[1]; infusion day 4
  Intracranial Pressure, mean: 17.7 mm Hg
[1]; moderately brain-injured patients, 30 days post-injury
  DRS scores versus placebo: significantly better DRS scores
[1]; treatment received
  Survived > 30 days: 88.2%
[2]; Intralipid solutions containing progesterone in 95% ethyl alcohol
  stability of solution: ≥ 24 h
[2]; solution of progesterone in 95% ethyl alcohol, room temperature
  stability of solution: up to 2 years
